≈ marks a conversion by molar mass, not a printed value.
Test system: Maillard reaction (Human Serum Albumin and Glucose)
Assay: Measurement of the Maillard reaction inhibitory activity (fluorescent products of human serum albumin and glucose, 60° C., 40 hours)
Conditions: for IC50 values compared with tannic acid, ellagic acid dihydrate and aminoguanidine / Maillard reaction inhibitory activity compared with aminoguanidine (positive control) / Maillard reaction inhibition ratio (%) compared with ellagic acid dihydrate and aminoguanidine: in words; for Maillard reaction inhibitory activity compared with aminoguanidine (positive control): Tables 2 and 3; for Maillard reaction inhibition ratio (%) compared with ellagic acid dihydrate and aminoguanidine: when prepared at lower concentrations; for IC50: human, 40 h
Description: A pomegranate extract (containing 50% by mass of polyphenol; manufactured by Morishita Jintan Co., Ltd.), punicalin, punicalagin, oenothein B, eucarbanin B, punicacortein C, a compound represented by the formula (VI), and a compound represented by the formula (VII) were used as samples to be examined. Tannic acid and ellagic acid dihydrate were used for comparison. Aminoguanidine was used as a positive control. […], 300 μg/mL and 1,000 μg/mL, and the Maillard reaction inhibitory activity of the prepared solutions was measured. The inhibitory activity was measured as follows.
Four reaction solutions A to D shown in Table 1 below were prepared using the above-described prepared solutions of the samples, and were incubated at 60° C. for 40 hours to cause the Maillard reaction. Thereafter, 400 μL of the reaction solutions A to D was diluted with 2,400 μL of distilled water and diluted samples were obtained. The fluorescence intensity (the excitation light: 370 nm; the measurement light: 440 nm) of the diluted samples was measured and was expressed as a relative value with respect to the fluorescence intensity of 0.1 μg/mL solution of quinine sulfate that was taken as 100 to calculate the amount of fluorescent products of the Maillard reaction (quantitative value).
Next, the Maillard reaction inhibition ratio (%) with respect to the above-described prepared solutions (concentration (μg/mL)) of the samples was calculated from the obtained quantitative value using the following equation.
Equation: Inhibition ratio (%)=100−[(a−b)/(c−d)]×100 [Formula 1]
where a represents a relative value (−) of the fluorescent products of the Maillard reaction with the reaction solution A calculated in terms of quinine sulfate,
b represents a relative value (−) of the fluorescent products of the Maillard reaction in terms of quinine sulfate when the reaction solution B is used,
c represents a relative value (−) of the fluorescent products of the Maillard reaction in terms of quinine sulfate when the reaction solution C is used, and
d represents a relative value (−) of the fluorescent products of the Maillard reaction in terms of quinine sulfate when the reaction solution D is used.
Thereafter, 50% inhibition ratio (IC50) of each sample was calculated as follows. That is, the inhibition ratio was plotted with respect to the sample concentration, 4-parameter plot was performed, and the concentration showing an inhibition ratio of 50% was taken as IC50.

Row | Structure (SMILES) | Maillard reaction inhibition ratio (%) (Conc. 0.01 mg/mL) | Maillard reaction inhibition ratio (%) (Conc. 0.03 mg/mL) | Maillard reaction inhibition ratio (%) (Conc. 0.1 mg/mL) | Maillard reaction inhibition ratio (%) (Conc. 0.3 mg/mL) | Maillard reaction inhibition ratio (%) (Conc. 1 mg/mL) | Maillard reaction inhibition ratio (%) (Conc. 10 mg/mL) | IC50 values compared with tannic acid, ellagic acid dihydrate and aminoguanidine | Maillard reaction inhibitory activity compared with aminoguanidine (positive control) | Maillard reaction inhibition ratio (%) compared with ellagic acid dihydrate and aminoguanidine | Maillard reaction inhibition ratio (%) (Conc. 100 mg/mL) | Maillard reaction inhibition ratio (%) (Conc. 300 mg/mL) | Maillard reaction inhibition ratio (%) (Conc. 1000 mg/mL) | IC50 [µg/mL]
1 | O=C1OC2C(O)OC3COC(=O)c4cc(O)c(O)c(O)c4-c4c(O)c(O)c5oc(=O)c6c(c(O)c(O)c7oc(=O)c4c5c76)-c4c(cc(O)c(O)c4O)C(=O)O[C@H]3C2OC(=O)c2cc(O)c(O)c(O)c2-c2c1cc(O)c(O)c2O (stereo partly shown) [Punicalagin, punicalagin] | 4.3 | 10.9 | 36.2 | 71.4 | 73.5 | 86.1 | particularly low | superior Maillard reaction inhibitory activity to aminoguanidine | particularly superior | – | – | – | –
2 | N=C(N)NN [Aminoguanidine, reference compound] | – | – | – | – | – | – | – | – | – | 40.2 | 51.4 | 62 | 273 (≈ 3690 µM)
3 | O=C1OC[C@H]2OC(O)[C@H](O)[C@@H](O)[C@@H]2OC(=O)c2cc(O)c(O)c(O)c2-c2c(O)c(O)c3oc(=O)c4c(c(O)c(O)c5oc(=O)c2c3c54)-c2c1cc(O)c(O)c2O (stereo partly shown) [Punicalin, punicalin] | 7.6 | 6.5 | 32.1 | 69.6 | 73.1 | 84.9 | particularly low | superior Maillard reaction inhibitory activity to aminoguanidine | particularly superior | – | – | – | –
4 | O=C(OC1C(O)OC2COC(=O)c3cc(Oc4c(C(=O)OC5C(O)OC6COC(=O)c7cc(O)c(O)c(O)c7-c7c(cc(O)c(O)c7O)C(=O)O[C@H]6C5OC(=O)c5cc(O)c(O)c(O)c5)cc(O)c(O)c4O)c(O)c(O)c3-c3c(cc(O)c(O)c3O)C(=O)O[C@H]2C1OC(=O)c1cc(O)c(O)c(O)c1)c1cc(O)c(O)c(O)c1 (stereo partly shown) [Eucarbanin B, eucarbanin B] | – | – | 21.2 | – | 72.9 | 79.4 | – | superior Maillard reaction inhibitory activity to aminoguanidine | – | – | – | – | 0.43 (≈ 0.274 µM)
5 | O=C(OC1C(O)OC2COC(=O)c3cc(Oc4c(C(=O)OC5C(O)OC6COC(=O)c7cc(Oc8c(C(=O)OC9C(O)OC%10COC(=O)c%11cc(Oc%12c(C(=O)OC%13C(O)OC%14COC(=O)c%15cc(O)c(O)c(O)c%15-c%15c(cc(O)c(O)c%15O)C(=O)O[C@H]%14C%13OC(=O)c%13cc(O)c(O)c(O)c%13)cc(O)c(O)c%12O)c(O)c(O)c%11-c%11c(cc(O)c(O)c%11O)C(=O)O[C@H]%10C9OC(=O)c9cc(O)c(O)c(O)c9)cc(O)c(O)c8O)c(O)c(O)c7-c7c(cc(O)c(O)c7O)C(=O)O[C@H]6C5OC(=O)c5cc(O)c(O)c(O)c5)cc(O)c(O)c4O)c(O)c(O)c3-c3c(cc(O)c(O)c3O)C(=O)O[C@H]2C1OC(=O)c1cc(O)c(O)c(O)c1)c1cc(O)c(O)c(O)c1 (stereo partly shown) | 30.4 | – | 40.3 | – | 74.3 | 82.5 | particularly low | superior Maillard reaction inhibitory activity to aminoguanidine | particularly superior | – | – | – | –
6 | O=c1oc2c(O)c(O)cc3c(=O)oc4c(O)c(O)cc1c4c23 [Ellagic acid dihydrate, ellagic acid dihydrate, reference compound] | 1.9 | 2.2 | 12.0 | 44.8 | 68.3 | 78.4 | – | – | – | – | – | – | 0.34
7 | O=C(OC1C(O)OC2COC(=O)c3cc(Oc4c(C(=O)OC5C(O)OC6COC(=O)c7cc(Oc8c(C(=O)OC9C(O)OC%10COC(=O)c%11cc(O)c(O)c(O)c%11-c%11c(cc(O)c(O)c%11O)C(=O)O[C@H]%10C9OC(=O)c9cc(O)c(O)c(O)c9)cc(O)c(O)c8O)c(O)c(O)c7-c7c(cc(O)c(O)c7O)C(=O)O[C@H]6C5OC(=O)c5cc(O)c(O)c(O)c5)cc(O)c(O)c4O)c(O)c(O)c3-c3c(cc(O)c(O)c3O)C(=O)O[C@H]2C1OC(=O)c1cc(O)c(O)c(O)c1)c1cc(O)c(O)c(O)c1 (stereo partly shown) [Compound represented by the formula (VI)] | – | – | 46.6 | – | 76.7 | 95.4 | particularly low | superior Maillard reaction inhibitory activity to aminoguanidine | – | – | – | – | 0.13
8 | O=C(OC[C@H]1O[C@@H](OC(=O)c2cc(O)c(O)c(OC(=O)c3cc(O)c(O)c(O)c3)c2)[C@H](OC(=O)c2cc(O)c(O)c(OC(=O)c3cc(O)c(O)c(O)c3)c2)[C@@H](OC(=O)c2cc(O)c(O)c(OC(=O)c3cc(O)c(O)c(O)c3)c2)[C@@H]1OC(=O)c1cc(O)c(O)c(OC(=O)c2cc(O)c(O)c(O)c2)c1)c1cc(O)c(O)c(OC(=O)c2cc(O)c(O)c(O)c2)c1 [Tannic acid, reference compound] | 12.7 | – | 48.7 | – | 65.1 | 68.8 | – | – | – | – | – | – | 0.31 (≈ 0.182 µM)

Source: patent publication US20160058782A1, “MAILLARD REACTION INHIBITOR” (MORISHITA JINTAN CO., LTD., priority 2011, published 2016)
